# Results from ChEMBL document CHEMBL3885881, “DrugMatrix”.
# Species on record: Rattus norvegicus
# Test: DrugMatrix - Regimen: Daily Repeat
# Assay type: toxicity, organism-based, Sprague-Dawley
# Set-up: regimen Daily Repeat, gender Male, age 6-8 weeks
# Details: in vivo, po, 0 mg/kg, route oral GAVAGE, dose level Control, […]; for ABSOLUTE BASOPHIL / ABSOLUTE EOSINOPHIL / ABSOLUTE LYMPHOCYTE / ABSOLUTE MONOCYTE / ABSOLUTE SEGMENTED NEUTROPHIL / BASOPHIL / EOSINOPHIL / ERYTHROCYTE COUNT / HEMATOCRIT / HEMOGLOBIN / LEUKOCYTE COUNT / LYMPHOCYTE / MEAN CORPUSCULAR HEMOGLOBIN / MEAN CORPUSCULAR HEMOGLOBIN CONCENTRATION / MEAN CORPUSCULAR VOLUME / MONOCYTE / NEUTROPHIL / NUCLEATED RED BLOOD CELLS / PLATELET COUNT: tissue Blood; for ALANINE AMINOTRANSFERASE / ALBUMIN / ALKALINE PHOSPHATASE / ASPARTATE AMINOTRANSFERASE / BLOOD UREA NITROGEN / CARBON DIOXIDE / CHLORIDE / CHOLESTEROL / CREATINE PHOSPHOKINASE / CREATININE / GLUCOSE / LACTATE DEHYDROGENASE / LIPASE / PHOSPHORUS / POTASSIUM / SODIUM / TOTAL BILIRUBIN / TOTAL PROTEIN / URIC ACID: tissue Plasma
smiles,measurement,setting,value
CS(=O)(=O)Nc1ccc([N+](=O)[O-])cc1Oc1ccccc1 [NIMESULIDE],ABSOLUTE BASOPHIL,"72 h, time 3 day",0 CELLS/uL
same,ABSOLUTE EOSINOPHIL,"72 h, time 3 day",0 CELLS/uL
same,ABSOLUTE LYMPHOCYTE,"72 h, time 3 day",7601 CELLS/uL
same,ABSOLUTE MONOCYTE,"72 h, time 3 day",354.33 CELLS/uL
same,ABSOLUTE SEGMENTED NEUTROPHIL,"72 h, time 3 day",744.67 CELLS/uL
same,BASOPHIL,"72 h, time 3 day",0%
same,EOSINOPHIL,"72 h, time 3 day",0%
same,ERYTHROCYTE COUNT,"72 h, time 3 day",5.03 x10E6/uL
same,HEMATOCRIT,"72 h, time 3 day",33.7%
same,HEMOGLOBIN,"72 h, time 3 day",13.43 G/DL
same,LEUKOCYTE COUNT,"72 h, time 3 day",8.7 x10E3/uL
same,LYMPHOCYTE,"72 h, time 3 day",86.33%
same,MEAN CORPUSCULAR HEMOGLOBIN,"72 h, time 3 day",26.7 pg
same,MEAN CORPUSCULAR HEMOGLOBIN CONCENTRATION,"72 h, time 3 day",39.83 G/DL
same,MEAN CORPUSCULAR VOLUME,"72 h, time 3 day",67 fL
same,MONOCYTE,"72 h, time 3 day",4.67%
same,NEUTROPHIL,"72 h, time 3 day",9%
same,NUCLEATED RED BLOOD CELLS,"72 h, time 3 day",0 /100WBC
same,PLATELET COUNT,"72 h, time 3 day",1151 x10E3/uL
same,ALANINE AMINOTRANSFERASE,"72 h, time 3 day",97.67 u/L
same,ALBUMIN,"72 h, time 3 day",4.07 G/DL
same,ALKALINE PHOSPHATASE,"72 h, time 3 day",607.67 u/L
same,ASPARTATE AMINOTRANSFERASE,"72 h, time 3 day",101 u/L
same,BLOOD UREA NITROGEN,"72 h, time 3 day",13.33 mg/dL
same,CARBON DIOXIDE,"72 h, time 3 day",36 mmol/L
same,CHLORIDE,"72 h, time 3 day",99.67 MEQ/L
same,CHOLESTEROL,"72 h, time 3 day",75.67 mg/dL
same,CREATINE PHOSPHOKINASE,"72 h, time 3 day",279.67 u/L
same,CREATININE,"72 h, time 3 day",0.16 mg/dL
same,GLUCOSE,"72 h, time 3 day",164 mg/dL
same,LACTATE DEHYDROGENASE,"72 h, time 3 day",115 u/L
same,LIPASE,"72 h, time 3 day",12.67 u/L
same,PHOSPHORUS,"72 h, time 3 day",8.77 mg/dL
same,POTASSIUM,"72 h, time 3 day",5.79 MEQ/L
same,SODIUM,"72 h, time 3 day",142.83 MEQ/L
same,TOTAL BILIRUBIN,"72 h, time 3 day",0.27 mg/dL
same,TOTAL PROTEIN,"72 h, time 3 day",5.8 G/DL
same,URIC ACID,"72 h, time 3 day",0.67 mg/dL
same,ABSOLUTE BASOPHIL,"120 h, time 5 day",0 CELLS/uL
same,ABSOLUTE EOSINOPHIL,"120 h, time 5 day",0 CELLS/uL
same,ABSOLUTE LYMPHOCYTE,"120 h, time 5 day",4426.33 CELLS/uL
same,ABSOLUTE MONOCYTE,"120 h, time 5 day",102.67 CELLS/uL
same,ABSOLUTE SEGMENTED NEUTROPHIL,"120 h, time 5 day",337.67 CELLS/uL
same,BASOPHIL,"120 h, time 5 day",0%
same,EOSINOPHIL,"120 h, time 5 day",0%
same,ERYTHROCYTE COUNT,"120 h, time 5 day",5.31 x10E6/uL
same,HEMATOCRIT,"120 h, time 5 day",32.5%
same,HEMOGLOBIN,"120 h, time 5 day",13.17 G/DL
same,LEUKOCYTE COUNT,"120 h, time 5 day",4.87 x10E3/uL
same,LYMPHOCYTE,"120 h, time 5 day",90.33%
same,MEAN CORPUSCULAR HEMOGLOBIN,"120 h, time 5 day",24.93 pg
same,MEAN CORPUSCULAR HEMOGLOBIN CONCENTRATION,"120 h, time 5 day",40.67 G/DL
same,MEAN CORPUSCULAR VOLUME,"120 h, time 5 day",61.33 fL
same,MONOCYTE,"120 h, time 5 day",2.33%
same,NEUTROPHIL,"120 h, time 5 day",7.33%
same,NUCLEATED RED BLOOD CELLS,"120 h, time 5 day",0.33 /100WBC
same,PLATELET COUNT,"120 h, time 5 day",848.33 x10E3/uL
same,ALANINE AMINOTRANSFERASE,"120 h, time 5 day",59.67 u/L
same,ALBUMIN,"120 h, time 5 day",3.87 G/DL
same,ALKALINE PHOSPHATASE,"120 h, time 5 day",452 u/L
same,ASPARTATE AMINOTRANSFERASE,"120 h, time 5 day",81.33 u/L
same,BLOOD UREA NITROGEN,"120 h, time 5 day",13.67 mg/dL
same,CARBON DIOXIDE,"120 h, time 5 day",26.33 mmol/L
same,CHLORIDE,"120 h, time 5 day",103.67 MEQ/L
same,CHOLESTEROL,"120 h, time 5 day",65.67 mg/dL
same,CREATINE PHOSPHOKINASE,"120 h, time 5 day",355.33 u/L
same,CREATININE,"120 h, time 5 day",0.14 mg/dL
same,GLUCOSE,"120 h, time 5 day",171.33 mg/dL
same,LACTATE DEHYDROGENASE,"120 h, time 5 day",118 u/L
same,LIPASE,"120 h, time 5 day",11.33 u/L
same,PHOSPHORUS,"120 h, time 5 day",11.13 mg/dL
same,POTASSIUM,"120 h, time 5 day",5.18 MEQ/L
same,SODIUM,"120 h, time 5 day",143.17 MEQ/L
same,TOTAL BILIRUBIN,"120 h, time 5 day",0.2 mg/dL
same,TOTAL PROTEIN,"120 h, time 5 day",5.87 G/DL
same,URIC ACID,"120 h, time 5 day",0.63 mg/dL
